Source: patent US11466070B2, “Signalling system” (AUTOLUS LIMITED, priority 2016, dated 2022)

Test system: BW5 T-cells
Experiment: Activation of TetCAR-expressing BW5 T-cells challenged with SupT1 cells expressing CD33, with increasing tetracycline
Assay type: cell-based
Conditions: TetCAR (anti-CD33) BW5 T-cells challenged with SupT1 cells expressing CD33
Description: A bicistronic construct was expressed in BW5 T cells as a single transcript which self-cleaves at the 2A site to yield a signalling component which comprises TiP fused via a flexible linker to the endodomain of CD3-Zeta; and a receptor component which comprises a CD33 recognizing scFv, a spacer derived from the Fc domain of IgG1, a CD4 derived transmembrane and intracellular domain; and TetR (FIG. 6a). A control was also expressed which was identical except that TiP was absent from the signalling component (FIG. 6b).
The BW5 T-cells were challenged with wild-type SupT1 cells or SupT1 cells engineered to express CD33 in the absence of tetracycline or in the presence of increasing concentrations of tetracycline.
Control TetCAR which lacks the TiP domain was also transduced into BW5. Once again, these T-cells were challenged with wild-type SupT1 cells or SupT1 cells engineered to express CD33 in the absence or in the presence of increasing concentration of Tetracycline.

## CN(C)[C@@H]1C(O)=C(C(N)=O)C(=O)[C@@]2(O)C(O)=C3C(=O)c4c(O)cccc4[C@@](C)(O)[C@H]3C[C@@H]12 [tetracycline, reference compound]
  concentration of tetracycline at which activation is fully inhibited: 100 nM
